From ChEMBL document CHEMBL1152592, “Design, synthesis and biological evaluations of novel 7-[3-(1-aminocycloalkyl)pyrrolidin-1-yl]-6-desfluoro-8-methoxyquinolones with potent antibacterial activity against multi-drug resistant Gram-positive bacteria” (Bioorg Med Chem, 2009)
In brackets after ≈: the same amount, converted by molar mass.

Key:
[1] = tested on: Staphylococcus epidermidis; test: Antibacterial activity against Staphylococcus epidermidis 56500 after 18 hrs by twofold microbroth dilution method; type: functional; conditions: Staphylococcus epidermidis, 56500, 18 h
Streptococcus mitis = test: Antibacterial activity against Streptococcus mitis IID685 after 18 hrs by twofold microbroth dilution method; type: functional; conditions: IID685, 18 h
Staphylococcus aureus [2] = test: Antibacterial activity against Staphylococcus aureus FDA 209-P after 18 hrs by twofold microbroth dilution method; type: functional
Streptococcus pyogenes = test: Antibacterial activity against Streptococcus pyogenes G-36 after 18 hrs by twofold microbroth dilution method; type: functional; conditions: G-36, 18 h
Streptococcus pneumoniae [3] = test: Antibacterial activity against Streptococcus pneumoniae J-24 after 18 hrs by twofold microbroth dilution method; type: functional; conditions: J-24, 18 h
Escherichia coli = test: Antibacterial activity against Escherichia coli NIHJ after 18 hrs by twofold microbroth dilution method; type: functional
Enterococcus faecalis [4] = test: Antibacterial activity against Enterococcus faecalis ATCC 19433 after 18 hrs by twofold microbroth dilution method; type: functional; conditions: ATCC19433, 18 h
Klebsiella pneumoniae = test: Antibacterial activity against Klebsiella pneumoniae type 2 after 18 hrs by twofold microbroth dilution method; type: functional; conditions: type 2, 18 h
Pseudomonas aeruginosa = test: Antibacterial activity against Pseudomonas aeruginosa PAO1 after 18 hrs by twofold microbroth dilution method; type: functional; conditions: PAO1, 18 h
Staphylococcus aureus [5] = test: Antibacterial activity against ciprofloxacin, methicillin-resistant Staphylococcus aureus after 18 hrs by twofold microbroth dilution method; type: functional
Enterococcus faecalis [6] = test: Antibacterial activity against vancomycin-resistant Enterococcus faecalis after 18 hrs by twofold microbroth dilution method; type: functional
Enterococcus faecium = test: Antibacterial activity against vancomycin-resistant Enterococcus faecium after 18 hrs by twofold microbroth dilution method; type: functional
Streptococcus pneumoniae [7] = test: Antibacterial activity against penicillin-intermediate resistant Streptococcus pneumoniae after 18 hrs by twofold microbroth dilution method; type: functional
Mus musculus [8] = test: Toxicity in Slc:ddY mouse at 150 mg/kg, iv; type: organism-based; parameters: dose 150 mg/kg, route intravenous; conditions: in vivo
Mus musculus [9] = test: Toxicity in Slc:ddY mouse at 100 mg/kg, iv; type: organism-based; parameters: dose 100 mg/kg, route intravenous; conditions: in vivo
[10] = Aqueous […] of the compound; type: physicochemical; conditions: aqueous (not further specified)
Mus musculus [11] = test: Toxicity in Slc:ddY mouse at 50 mg/kg, iv; type: organism-based; parameters: dose 50 mg/kg, route intravenous; conditions: in vivo
Staphylococcus aureus [12] = test: Antibacterial activity against levofloxacin, methicillin-resistant Staphylococcus aureus after 18 hrs by twofold microbroth dilution method; type: functional
[13] = Inhibition of Staphylococcus aureus wild type DNA topoisomerase 4
[14] = Inhibition of Staphylococcus aureus DNA topoisomerase 4 Ser80Phe mutant
DNA gyrase subunit A = DNA gyrase subunit A (Staphylococcus aureus, UniProt P20831, S84L); test: Inhibition of Staphylococcus aureus DNA gyrase Ser84Leu mutant

Compound	MIC [1] [µg/mL]	MIC (Streptococcus mitis) [µg/mL]	MIC (Staphylococcus aureus [2]) [µg/mL]	MIC (Streptococcus pyogenes) [µg/mL]	MIC (Streptococcus pneumoniae [3]) [µg/mL]	MIC (Escherichia coli) [µg/mL]	MIC (Enterococcus faecalis [4]) [µg/mL]	MIC (Klebsiella pneumoniae) [µg/mL]	MIC (Pseudomonas aeruginosa) [µg/mL]	MIC50 (Staphylococcus aureus [5]) [µg/mL]	MIC90 (Staphylococcus aureus [5]) [µg/mL]	MIC50 (Enterococcus faecalis [6]) [µg/mL]	MIC90 (Enterococcus faecalis [6]) [µg/mL]	MIC50 (Enterococcus faecium) [µg/mL]	MIC90 (Enterococcus faecium) [µg/mL]	solubility [10] [µg/mL]	MIC50 (Staphylococcus aureus [12]) [µg/mL]	MIC80 (Staphylococcus aureus [12]) [µg/mL]	MIC90 (Staphylococcus aureus [12]) [µg/mL]	further results
N[C@@H]1[C@H]2CN(c3nc4c(cc3F)c(=O)c(C(=O)O)cn4-c3ccc(F)cc3F)C[C@@H]12 [TROVAFLOXACIN]	0.05 (≈ 0.12 µM)	0.1 (≈ 0.24 µM)	0.013 (≈ 0.0312 µM)	0.2 (≈ 0.48 µM)	0.05 (≈ 0.12 µM)	≤ 0.003	0.2 (≈ 0.48 µM)	0.025 (≈ 0.06 µM)	0.2 (≈ 0.48 µM)	–	–	–	–	–	–	–	–	–	–	–
NCC[C@H](O)C(=O)N[C@@H]1C[C@H](N)[C@@H](O[C@H]2O[C@H](CN)CC[C@H]2N)[C@H](O)[C@H]1O[C@H]1O[C@H](CO)[C@@H](O)[C@H](N)[C@H]1O [ARBEKACIN]	–	–	–	–	–	–	–	–	–	8 (≈ 14.5 µM)	32 (≈ 57.9 µM)	2 (≈ 3.62 µM)	2 (≈ 3.62 µM)	16 (≈ 29 µM)	32 (≈ 57.9 µM)	–	–	–	–	MIC50 (Streptococcus pneumoniae [7]): 32 µg/mL (≈ 57.9 µM); MIC90 (Streptococcus pneumoniae [7]): 64 µg/mL (≈ 116 µM)
COc1c(N2CC[C@@H](C3(N)CC3)C2)c(F)cc2c(=O)c(C(=O)O)cn([C@@H]3C[C@@H]3F)c12	≤ 0.003	0.003 (≈ 0.00715 µM)	≤ 0.003	0.003 (≈ 0.00715 µM)	≤ 0.003	≤ 0.003	0.012 (≈ 0.0286 µM)	0.012 (≈ 0.0286 µM)	0.2 (≈ 0.477 µM)	–	–	–	–	–	–	221 (≈ 527 µM)	–	–	–	Activity (Mus musculus [8]): Toxic; Activity (Mus musculus [9]): Toxic; Activity (Mus musculus [11]): Toxic
CN[C@H](CC(C)C)C(=O)N[C@H]1C(=O)N[C@@H](CC(N)=O)C(=O)N[C@H]2C(=O)N[C@H]3C(=O)N[C@H](C(=O)N[C@H](C(=O)O)c4cc(O)cc(O)c4-c4cc3ccc4O)[C@H](O)c3ccc(c(Cl)c3)Oc3cc2cc(c3O[C@@H]2O[C@H](CO)[C@@H](O)[C@H](O)[C@H]2O[C@H]2C[C@](C)(N)[C@H](O)[C@H](C)O2)Oc2ccc(cc2Cl)[C@H]1O [VANCOMYCIN]	–	–	–	–	–	–	–	–	–	1 (≈ 0.69 µM)	2 (≈ 1.38 µM)	> 128	> 128	> 128	> 128	–	1 (≈ 0.69 µM)	1 (≈ 0.69 µM)	1 (≈ 0.69 µM)	MIC50 (Streptococcus pneumoniae [7]): 0.5 µg/mL (≈ 0.345 µM); MIC90 (Streptococcus pneumoniae [7]): 0.5 µg/mL (≈ 0.345 µM)
COc1c(N2CC[C@@H]([C@H](C)N)C2)c(F)cc2c(=O)c(C(=O)O)cn(C3CC3)c12	0.012 (≈ 0.0308 µM)	0.025 (≈ 0.0642 µM)	–	0.012 (≈ 0.0308 µM)	–	0.012 (≈ 0.0308 µM)	0.05 (≈ 0.128 µM)	0.05 (≈ 0.128 µM)	–	–	–	–	–	–	–	89 (≈ 229 µM)	–	–	–	Activity (Mus musculus [9]): Toxic; Activity (Mus musculus [11]): Toxic
CC(=O)NC[C@H]1CN(c2ccc(N3CCOCC3)c(F)c2)C(=O)O1 [LINEZOLID]	–	–	–	–	–	–	–	–	–	1 (≈ 2.96 µM)	1 (≈ 2.96 µM)	2 (≈ 5.93 µM)	2 (≈ 5.93 µM)	2 (≈ 5.93 µM)	2 (≈ 5.93 µM)	–	–	–	–	MIC50 (Streptococcus pneumoniae [7]): 1 µg/mL (≈ 2.96 µM); MIC90 (Streptococcus pneumoniae [7]): 2 µg/mL (≈ 5.93 µM)
O=C(O)c1cn(C2CC2)c2cc(N3CCNCC3)c(F)cc2c1=O [CIPROFLOXACIN]	0.2 (≈ 0.604 µM)	0.78 (≈ 2.35 µM)	0.05 (≈ 0.151 µM)	1.56 (≈ 4.71 µM)	0.39 (≈ 1.18 µM)	≤ 0.003	0.78 (≈ 2.35 µM)	0.025 (≈ 0.0754 µM)	0.05 (≈ 0.151 µM)	–	–	–	–	–	–	–	> 64	> 64	> 64	IC50 [13]: 1.24 µg/mL (≈ 3.74 µM); IC50 [14]: 22.4 µg/mL (≈ 67.6 µM)
COc1c(N2C[C@@H]3CCCN[C@@H]3C2)c(F)cc2c(=O)c(C(=O)O)cn(C3CC3)c12 [MOXIFLOXACIN]	0.1 (≈ 0.249 µM)	0.1 (≈ 0.249 µM)	0.013 (≈ 0.0324 µM)	0.2 (≈ 0.498 µM)	0.025 (≈ 0.0623 µM)	0.006 (≈ 0.0149 µM)	0.2 (≈ 0.498 µM)	0.05 (≈ 0.125 µM)	0.78 (≈ 1.94 µM)	2 (≈ 4.98 µM)	32 (≈ 79.7 µM)	16 (≈ 39.9 µM)	32 (≈ 79.7 µM)	4 (≈ 9.96 µM)	32 (≈ 79.7 µM)	–	4 (≈ 9.96 µM)	32 (≈ 79.7 µM)	32 (≈ 79.7 µM)	IC50 [13]: 1.36 µg/mL (≈ 3.39 µM); IC50 [14]: 24.2 µg/mL (≈ 60.3 µM)
C[C@H]1COc2c(N3CCN(C)CC3)c(F)cc3c(=O)c(C(=O)O)cn1c23.C[C@H]1COc2c(N3CCN(C)CC3)c(F)cc3c(=O)c(C(=O)O)cn1c23.O [LEVOFLOXACIN]	–	–	–	–	–	–	–	–	–	–	–	–	–	–	–	–	16	> 64	> 64	IC50 (DNA gyrase subunit A): > 1.38 mM; IC50 [13]: 2.67 µg/mL; IC50 [14]: 57.1 µg/mL
CNC1([C@@H]2CCN(c3c(F)cc4c(=O)c(C(=O)O)cn([C@@H]5C[C@@H]5F)c4c3OC)C2)CC1	0.006 (≈ 0.0138 µM)	0.003 (≈ 0.00692 µM)	≤ 0.003	0.003 (≈ 0.00692 µM)	≤ 0.003	≤ 0.003	0.025 (≈ 0.0577 µM)	0.012 (≈ 0.0277 µM)	0.2 (≈ 0.461 µM)	–	–	–	–	–	–	173 (≈ 399 µM)	–	–	–	Activity (Mus musculus [8]): Toxic; Activity (Mus musculus [9]): Toxic; Activity (Mus musculus [11]): Toxic
COc1c(N2CC[C@@H](C3(N)CCC3)C2)c(F)cc2c(=O)c(C(=O)O)cn([C@@H]3C[C@@H]3F)c12	≤ 0.003	0.003 (≈ 0.00692 µM)	≤ 0.003	0.003 (≈ 0.00692 µM)	≤ 0.003	≤ 0.003	0.025 (≈ 0.0577 µM)	0.025 (≈ 0.0577 µM)	0.39 (≈ 0.9 µM)	–	–	–	–	–	–	180 (≈ 415 µM)	–	–	–	Activity (Mus musculus [8]): Toxic
